# Values quoted from earlier work as cited in PMC6311893, “Computational prediction of plasma protein binding of cyclic peptides from small molecule experimental data using sparse modeling techniques” (BMC Bioinformatics, 2018).
# Like-named read-outs stand apart in the source and are kept apart here. Positions of bridges follow the written chain, without caps; N, C: chain ends. Non-standard residues stand in square brackets, D forms with d. Residues, ends and D or L forms follow the SMILES beside them. *: point of attachment. Octanoyl(6-Me) = CCC(C)CCCCC(=O)*; Dab = NCC[CH](N)C(=O)O
# Test system: plasma protein
# Details: cited from earlier work
# [1] = fraction bound to plasma protein, small molecule dataset, sheet 1-SM (Set Dte = test, Dtr = training), ref Ingle et al.
# [2] = fraction bound to plasma protein, small molecule dataset, sheet 1-SM, Set Dtr, ref Ingle et al.
# [3] = fraction bound to plasma protein, small molecule dataset, sheet 1-SM, ref Ingle et al.
molecule,measurement,setting,value
Cc1ccsc1C(=CCCN1CCC[C@@H](C(=O)O)C1)c1sccc1C [Tiagabine],PPB (fb),[1],0.96
Nc1nc(Cl)nc2c1ncn2[C@H]1C[C@H](O)[C@@H](CO)O1 [Cladribine],PPB (fb),[2],0.2
CO/N=C(\C(=O)N[C@@H]1C(=O)N2C(C(=O)O)=C(C)CS[C@H]12)c1csc(N)n1 [Cefetamet],PPB (fb),[2],0.22
Cc1ccnc2c1NC(=O)c1cccnc1N2C1CC1 [Nevirapine],PPB (fb),[2],0.64
CC(C)(C)NC[C@H](O)COc1nsnc1N1CCOCC1 [Timolol],PPB (fb),[3],0.1
CS(=O)(=O)OCCCCOS(C)(=O)=O [Busulphan],PPB (fb),[2],0.04
COc1ccc2c(c1)C(=O)N(CCc1ccc(S(=O)(=O)NC(=O)NC3CCCCC3)cc1)C(=O)C2(C)C [gliquidone],PPB (fb),[3],0.99
CCN(CC)CCNC(=O)c1ccc(NS(C)(=O)=O)cc1 [Sematilide],PPB (fb),[3],0.04
COc1ccc(/C=C\c2cc(OC)c(OC)c(OC)c2)cc1OP(=O)(O)O [Combretastatin A4 phosphate],PPB (fb),,0.77
Cc1ccc(C(N)C(=O)NC2C(=O)N3C2SC(C)(C)C3C(=O)O)cc1 (stereo not shown) [penicillin27],PPB (fb),,0.6
C[C@@H](O[C@H]1OCCN(Cc2n[nH]c(=O)[nH]2)[C@H]1c1ccc(F)cc1)c1cc(C(F)(F)F)cc(C(F)(F)F)c1 [Aprepitant],PPB (fb),[2],0.95
CN(C)CCC(c1ccc(Br)cc1)c1ccccn1 (stereo not shown) [brompheniramine],PPB (fb),[1],0.72
CCc1nnc(NS(=O)(=O)c2ccc(N)cc2)s1 [sulfaethidole],PPB (fb),[3],0.97
C=CCC1(C(C)C)C(=O)NC(=O)NC1=O [aprobarbital],PPB (fb),plasma,0.62
COc1cnc2ccccc2c1C(=O)NC1C(=O)N2C1SC(C)(C)C2C(=O)O (stereo not shown) [penicillin76],PPB (fb),[3],0.57
ceftibuten,PPB (fb),plasma,0.65
CCC1(O)CN2CCC1CC2C(O)c1ccnc2ccc(OC)cc12 (stereo not shown) [Hydroxydihydroquinidine],PPB (fb),plasma,0.53
CCN(CC)CCNC(=O)c1cc(Cl)c(N)cc1OC [Metoclopramide],PPB (fb),[1],0.37
CCS(=O)(=O)CCn1c([N+](=O)[O-])cnc1C [Tinidazole],PPB (fb),[3],0.15
CCCc1oc(CCC(=O)O)c(C(=O)O)c1C,PPB (fb),[1],0.99
CC1(C)SC2C(NC(=O)C(Cl)c3cccc(Cl)c3)C(=O)N2C1C(=O)O (stereo not shown) [penicillin23],PPB (fb),[1],0.94
O=C(O)Cc1ccccc1Nc1c(Cl)cccc1Cl [Diclofenac],PPB (fb),[1],0.995
COc1cc(NC(C)CCCN)c2ncccc2c1 (stereo not shown) [primaquine],PPB (fb),[3],0.8
CCCCNc1ccc(C(=O)OCCN(C)C)cc1 [tetracaine],PPB (fb),[3],0.85
Tolcapone,PPB (fb),plasma,0.99
CC(NCCC(c1ccccc1)c1ccccc1)c1ccccc1 (stereo not shown) [fendiline],PPB (fb),[3],0.95
CCc1cc(C(N)=S)ccn1 [ethionamide],PPB (fb),[3],0.3
CC(C)(S)[C@@H](N)C(=O)O [penicillamine],PPB (fb),[3],0.8
O=C1CCc2ccc(OCCCCN3CCN(c4cccc(Cl)c4Cl)CC3)cc2N1 [Aripiprazole],PPB (fb),[2],0.99
CCC(C)CCCCC(=O)NC(CCN)C(=O)NC(C(=O)NC(CCN)C(=O)NC1CCNC(=O)C(C(C)O)NC(=O)C(CCN)NC(=O)C(CCN)NC(=O)C(CC(C)C)NC(=O)C(Cc2ccccc2)NC(=O)C(CCN)NC1=O)C(C)O (stereo not shown) [polymyxin-B] ({Octanoyl(6-Me)}-[Dab]T[Dab][Dab][Dab]FL[Dab][Dab]T; lactam 4-C; configuration not given here),PPB (fb),"human, plasma",0.1
mepacrine,PPB (fb),plasma,0.9
CC1(C)SC2C(NC(=O)CC(N)c3cccs3)C(=O)N2C1C(=O)O (stereo not shown) [penicillin72],PPB (fb),[1],0.32
N[C@@H]1[C@H]2CN(c3nc4c(cc3F)c(=O)c(C(=O)O)cn4-c3ccc(F)cc3F)C[C@@H]12 [Trovafloxacin],PPB (fb),[3],0.81
O=C(c1ccc(F)cc1)C1CCN(CCn2c(=O)[nH]c3ccccc3c2=O)CC1 [Ketanserin],PPB (fb),[2],0.95
norgestimate,PPB (fb),plasma,0.99
CC1(C)SC2C(NC(=O)C(Cl)c3ccccc3)C(=O)N2C1C(=O)O (stereo not shown) [penicillin22],PPB (fb),[3],0.78
CC#C[C@]1(O)CC[C@H]2[C@@H]3CCC4=CC(=O)CCC4=C3[C@@H](c3ccc(N(C)C)cc3)C[C@@]21C [mifepristone],PPB (fb),[3],0.98
nitazoxanide,PPB (fb),plasma,0.99
COC(=O)Nc1nc2ccc(C(=O)c3ccccc3)cc2[nH]1 [Mebendazole],PPB (fb),[2],0.93
CCCn1c(=O)[nH]c(=O)c2[nH]cnc21 [Enprofylline],PPB (fb),[2],0.45
